The term EC50 denotes the concentration giving half of the maximal effect.

This passage reports EC50 results from patent US12312356B2, “Anthelmintic heterocyclic compounds” (Boehringer Ingelheim Vetmedica GmbH, priority 2020, dated 2025).

Test [1] deals with L4 stage Dirofilaria immitis worms. Put plainly: Screening method to test activity against L4 stage larvae of Dirofilaria immitis (motility, dose response). Format: cell-based. To be noted: 72 h, read-out: EC50 value (motility of L4 larvae).
Test [2] concerns microfilariae of Dirofilaria immitis. Put plainly: Screening method to test activity against microfilaria of Dirofilaria immitis (motility, dose response). The class given is cell-based. The following applies: 72 h, read-out: EC50 value (motility of the microfilaria).

In the case of `Cc1nc2c(C(C)C)c(C(=O)N[C@H]3CCOc4ccccc43)cnn2c1C1=CCC(C(F)(F)F)CC1` (stereo partly drawn) [Compound 327, N-[(4S)-3,4-dihydro-2H-1-benzopyran-4-yl]-8-isopropyl-2-methyl-3-[4-(trifluoromethyl)cyclohex-1-en-1-yl]imidazo[1,2-b]pyridazine-7-carboxamide], the EC50 in test [1] fell in the range of 1 to 10 nM. Turning to `Cc1nc2c(C(C)C)c(C(=O)N[C@H]3CCOc4ccccc43)cnn2c1N1CCCCC1` [Compound 324, N-[(4S)-3,4-dihydro-2H-1-benzopyran-4-yl]-8-isopropyl-2-methyl-3-(piperidin-1-yl)imidazo[1,2-b]pyridazine-7-carboxamide], the values for the EC50 in test [2] and in test [1] were less than 1 nM and 1 to 10 nM, respectively. Take `Cc1nc2c(C(C)C)c(C(=O)N[C@H]3CCOc4ccccc43)cnn2c1-c1cc(F)cc(F)c1` [Compound 175, 3-(3,5-difluorophenyl)-N-[(4S)-3,4-dihydro-2H-1-benzopyran-4-yl]-8-isopropyl-2-methylimidazo[1,2-b]pyridazine-7-carboxamide]: the EC50 in test [2] and in test [1] was 1 to 10 nM in each case.

In the case of `CC(C)c1c(C(=O)N[C@H]2CCOc3ccc(F)cc32)cnn2c(Cl)c(-c3cc(Cl)cc(Cl)c3)nc12` [Compound 304-0, 3-chloro-2-(3,5-dichlorophenyl)-N-[(4S)-6-fluoro-3,4-dihydro-2H-1-benzopyran-4-yl]-8-isopropylimidazo[1,2-b]pyridazine-7-carboxamide], the EC50 in test [1] fell in the range of 1000 to 10000 nM. On to `CC(C)c1c(C(=O)N[C@H]2CCOc3ccccc32)cnn2c(-c3cc(Cl)cc(Cl)c3)cnc12` [Compound 352, 3-(3,5-dichlorophenyl)-N-[(4S)-3,4-dihydro-2H-1-benzopyran-4-yl]-8-isopropylimidazo[1,2-b]pyridazine-7-carboxamide], for which the EC50 in test [2] was 10 to 100 nM.

Regarding `Cc1nc2c(C(C)C)c(C(=O)N[C@H]3CCOc4ccccc43)cnn2c1C(C)(C)C` [Compound 323, 3-tert-butyl-N-[(4S)-3,4-dihydro-2H-1-benzopyran-4-yl]-8-isopropyl-2-methylimidazo[1,2-b]pyridazine-7-carboxamide], the values for the EC50 in test [2] and in test [1] were 10 to 100 nM and 100 to 1000 nM, respectively. For `Cc1nc2c(C(C)C)c(NC(=O)[C@H]3CCOc4ccccc43)cnn2c1-c1cc(F)cc(F)c1` [Compound 320, (4S)—N-[3-(3,5-difluorophenyl)-8-isopropyl-2-methylimidazo[1,2-b]pyridazin-7-yl]-3,4-dihydro-2H-1-benzopyran-4-carboxamide], in test [1], the EC50 is 10 to 100 nM. For `O=C(N[C@H]1CCOc2ccccc21)c1cnn2c(-c3cc(Cl)cc(Cl)c3)cnc2c1N1CCOCC1` [Compound 511, 3-(3,5-dichlorophenyl)-N-[(4S)-3,4-dihydro-2H-1-benzopyran-4-yl]-8-(morpholin-4-yl)imidazo[1,2-b]pyridazine-7-carboxamide], in test [2], the EC50 lay within 10 to 100 nM. In the case of `O=C(N[C@H]1CCOc2ccccc21)c1cnn2c(-c3cc(Cl)cc(Cl)c3)c(C(F)(F)F)nc2c1N1CCOCC1` [Compound 450, 3-(3,5-dichlorophenyl)-N-[(4S)-3,4-dihydro-2H-1-benzopyran-4-yl]-8-(morpholin-4-yl)-2-(trifluoromethyl)imidazo[1,2-b]pyridazine-7-carboxamide], the EC50 in test [2] was in the range of 100 to 1000 nM. Still for that read-out and setting: the same measure for `Cc1nc2c(C(C)(C)C)c(C(=O)NN3CCOc4ccccc43)cnn2c1-c1cc(Cl)cc(Cl)c1` [Compound 614, 8-tert-butyl-3-(3,5-dichlorophenyl)-N-(2,3-dihydro-1,4-benzoxazin-4-yl)-2-methylimidazo[1,2-b]pyridazine-7-carboxamide]: 1 to 10 nM; for `C=C(C)c1c(C(=O)N[C@H]2CCOc3ccccc32)cnn2c(-c3cc(F)cc(F)c3)c(C)nc12` [Compound 279, 3-(3,5-difluorophenyl)-N-[(4S)-3,4-dihydro-2H-1-benzopyran-4-yl]-2-methyl-8-(prop-1-en-2-yl)imidazo[1,2-b]pyridazine-7-carboxamide]: 10 to 100 nM.

For `Cc1nc2c(C(C)(C)F)c(C(=O)N[C@H]3CCOc4ccccc43)cnn2c1-c1cc(F)cc(F)c1` [Compound 277, 3-(3,5-difluorophenyl)-N-[(4S)-3,4-dihydro-2H-1-benzopyran-4-yl]-8-(2-fluoropropan-2-yl)-2-methylimidazo[1,2-b]pyridazine-7-carboxamide], the EC50 in test [2] and in test [1] was 1 to 10 nM throughout. Consider `Cc1nc2c(C(C)(C)C)c(C(=O)N[C@H]3CCOc4ccccc43)cnn2c1-c1cc(Cl)cc(Cl)c1` [Compound 306, 8-tert-butyl-3-(3,5-dichlorophenyl)-N-[(4S)-3,4-dihydro-2H-1-benzopyran-4-yl]-2-methylimidazo[1,2-b]pyridazine-7-carboxamide], for which the results for the EC50 in test [2] and in test [1] were 1 to 10 nM and less than 1 nM, respectively. The matching figures for `Cc1nc2c(C(C)C)c(C(=O)N[C@H]3CCOc4ccccc43)cnn2c1-c1cc(Cl)cc(Cl)c1` [Compound 271, 3-(3,5-dichlorophenyl)-N-[(4S)-3,4-dihydro-2H-1-benzopyran-4-yl]-8-isopropyl-2-methylimidazo[1,2-b]pyridazine-7-carboxamide]: 1 to 10 nM and less than 1 nM.

`Cc1nc2c(C(C)C)c(C(=O)N[C@H]3CCOc4ccccc43)cnn2c1CC(C)C` [Compound 323-0, N-[(4S)-3,4-dihydro-2H-1-benzopyran-4-yl]-2-methyl-3-(2-methylpropyl)-8-(propan-2-yl)imidazo[1,2-b]pyridazine-7-carboxamide]: the EC50 in test [2] and in test [1] was 10 to 100 nM each time. As for `CC(=O)c1nc2c(C(C)C)c(C(=O)N[C@H]3CCOc4ccccc43)cnn2c1-c1cc(Cl)cc(Cl)c1` [Compound 558, 2-acetyl-3-(3,5-dichlorophenyl)-N-[(4S)-3,4-dihydro-2H-1-benzopyran-4-yl]-8-isopropylimidazo[1,2-b]pyridazine], the EC50 in test [2] was 10 to 100 nM. As to `Cc1nc2c(C(C)C)c(C(=O)N[C@H]3CCOc4ccccc43)cnn2c1[C@H]1CC[C@H](C(F)(F)F)CC1` [Compound 326, N-[(4S)-3,4-dihydro-2H-1-benzopyran-4-yl]-8-isopropyl-2-methyl-3-[(1r,4r)-4-(trifluoromethyl)cyclohexyl]imidazo[1,2-b]pyridazine-7-carboxamide], the half-maximal effective concentration (EC50) in test [1] was 10 to 100 nM. Still for that read-out and setting: the same measure for `Cc1nc2c(C(C)C)c(NC(=O)[C@@H]3CCOc4ccccc43)cnn2c1-c1cc(F)cc(F)c1` [Compound 320-0, (4R)—N-[3-(3,5-difluorophenyl)-8-isopropyl-2-methylimidazo[1,2-b]pyridazin-7-yl]-3,4-dihydro-2H-1-benzopyran-4-carboxamide]: 1000 to 10000 nM. The same measure, in the same setting: with `Cc1nc2c(C(C)C)c(C(=O)N[C@H]3CCOc4ccccc43)cnn2c1C#N` [Compound 366, 3-cyano-N-[(4S)-3,4-dihydro-2H-1-benzopyran-4-yl]-8-isopropyl-2-methylimidazo[1,2-b]pyridazine-7-carboxamide] the figure was 1000 to 10000 nM. For the compound `Cc1nc2c(C(C)C)c(C(=O)N[C@H]3CCOc4ccccc43)cnn2c1[C@H]1CC[C@@H](C(F)(F)F)CC1` [Compound 326-0, N—((S)-chroman-4-yl)-8-isopropyl-2-methyl-3-((1s,4R)-4-(trifluoromethyl)cyclohexyl)imidazo[1,2-b]pyridazine-7-carboxamide], the EC50 in test [2] fell in the range of 10 to 100 nM; in test [1] it was 1 to 10 nM.
